According to US9185910B2, “Amide compound” (Sumitomo Chemical Company, Limited, priority 2012, dated 2015):

Tests used:
Musca domestica = assay: Test Example 8: filter paper with sucrose bait, Musca domestica; format: in vivo; details: 500 ppm, 0.7 ml on filter paper, female imagoes, after 24 hours
Protocol: The formulations of Compounds of Present Invention 31, 41, 55, 62, 64 to 65, 67 to 70, 73 to 75, 88, 119, 124 and 131 as obtained in Formulation Example 5 were diluted with water, so as to have a concentration of the active ingredient of 500 ppm, to prepare a test drug solution.
A filter paper having a diameter of 5.5 cm was spread on the bottom of a polyethylene cup having the same diameter and 0.7 ml of the test drug solution was added dropwise onto the filter paper, and 30 mg of sucrose was uniformly placed as bait. Into the polyethylene cup, 10 female imagoes of Musca domestica were released, and the cup was sealed with a lid. After 24 hours, the life and death of Musca domestica was examined, and the death rate was calculated. Death rate (%)=(Number of dead insects/Number of tested insects)×100

[1] = test system: Haemaphysalis longicornis; assay: Test Example 11: coated screw tube contact test, Haemaphysalis longicornis ticks; format: in vivo; details: 2 mg compound coated on inner wall of screw tube, non-blood-sucking nymphal ticks, after 2 days
Protocol: 2 mg of each of Compounds of Present Invention 7, 20, 25, 28, 48, 55, 65 and 110 was weighed in a screw tube (Maruemu No. 5; 27×55 mm), and 0.2 mL of acetone was added thereto and sealed with a cap to dissolve the compound. The screw tube was rotated and inverted to uniformity coat the drug solution onto the whole inner wall of the tube. After removing the cap, the solution was air-dried for about 2 hours, then non-blood-sucking nymphal ticks, Haemaphysalis longicornis (5 ticks/group) were released, and the tube was sealed with the cap. After 2 days, the number of dead ticks was examined, and the death rate was calculated according to the following equation: Death rate (%)=100×(Number of dead ticks/Number of tested ticks).

SMILES | Death rate (%) (Musca domestica) | Death rate (%) [1]
CCSc1cccnc1C(=O)N(C)c1ccc(I)cn1 [compound 70] | 100% | 
CCSc1cccnc1C(=O)N(C)c1ccc(C(F)(F)C(F)(F)F)c(Cl)n1 [compound 110] |  | 100%
CCS(=O)(=O)c1cc(NC(=O)OC)cnc1C(=O)N(C)c1ccc(SC(F)(F)F)cc1 [compound 119] | 100% | 
CCSc1cc(Cl)cnc1C(=O)N(C)c1ccc(C(F)(F)F)cc1 [compound 131] | 100% | 
CCSc1cccnc1C(=O)Nc1ccc(C(F)(F)F)nc1 [compound 20] |  | 100%
